# Reference: publication PMC2945410 (Journal of molecular biology, 2010)
# Tests used:
# [1] = target: T1, E. coli YahA (Escherichia coli, UniProt P21514); assay: p-nitrophenol release, absorbance at […] nm; format: biochemical; conditions: 10 mM bis-pNPP, 50 mM HEPES pH 7.5, 2 mM MnCl2
# T1 sequence (P21514 73-362): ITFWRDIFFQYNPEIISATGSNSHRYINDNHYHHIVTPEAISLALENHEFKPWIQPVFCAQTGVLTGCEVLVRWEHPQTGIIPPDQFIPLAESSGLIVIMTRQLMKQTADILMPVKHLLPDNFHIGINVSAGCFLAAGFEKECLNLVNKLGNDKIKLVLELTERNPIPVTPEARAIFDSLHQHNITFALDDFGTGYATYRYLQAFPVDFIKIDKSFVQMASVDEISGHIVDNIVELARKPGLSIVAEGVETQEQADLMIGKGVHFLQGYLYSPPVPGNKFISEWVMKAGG
# [2] = target: T2, TBD1660 (Thiobacillus denitrificans, UniProt Q3SIB5); assay: p-nitrophenol release, absorbance at […] nm; format: biochemical; conditions: 10 mM bis-pNPP, 50 mM HEPES pH 7.5, 2 mM MnCl2
# T2 sequence (Q3SIB5 443-698): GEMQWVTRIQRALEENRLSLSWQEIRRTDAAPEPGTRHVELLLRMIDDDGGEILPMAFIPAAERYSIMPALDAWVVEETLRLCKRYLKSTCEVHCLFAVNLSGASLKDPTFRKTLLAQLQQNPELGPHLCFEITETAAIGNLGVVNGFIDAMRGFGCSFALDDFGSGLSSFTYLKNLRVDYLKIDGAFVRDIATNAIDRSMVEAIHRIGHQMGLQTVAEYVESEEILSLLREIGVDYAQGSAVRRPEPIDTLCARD
smiles,measurement,setting,value
"O=[N+]([O-])c1ccc(OP(=O)(O)Oc2ccc([N+](=O)[O-])cc2)cc1 [bis-pNPP, bis-p-nitrophenyl phosphate]","p-nitrophenol release, absorbance at 410 nm",[1],E. coli YahA and T. denitrificans TBD1660 showing the highest activities
same,"p-nitrophenol release, absorbance at 410 nm",[2],E. coli YahA and T. denitrificans TBD1660 showing the highest activities
